The record followed here is ChEMBL document CHEMBL1201862, “PubChem BioAssay data set” (2004).

Test in all cases: DTP human tumour cell line panel, 48 h
The subject of experiment [1] is M14.
In experiment [2] the test system is HCT-116.
The subject of experiment [3] is KM12.
Experiment [4] has as its system UO-31.
The subject of experiment [5] is SNB-75.
Experiment [6] deals with SW-620.
Experiment [7] has as its system IGROV-1.
For experiment [8], the system named is U-251.
Experiment [9] has as its system UACC-62.
The test system of experiment [10] is 786-0.
The test system of experiment [11] is Hs-578T.
Experiment [12] deals with BT-549.
For experiment [13], the system named is SR.
Experiment [14] has as its system A549.
The subject of experiment [15] is Malme-3M.
The subject of experiment [16] is HT-29.
Experiment [17] concerns OVCAR-3.
Experiment [18] has as its system OVCAR-4.
Experiment [19] relates to RPMI-8226.
For experiment [20], the system named is LOX IMVI.

Structures are written as SMILES.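 Grown in 96-well plates, cells were treated for 48 hours with each compound at five concentrations. Insufficient inhibition: endpoint recorded as highest concentration tested. GI50: concentration for 50% inhibition of growth.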 The source made the active and inactive calls. No stated cut-off is given here; in the data, active = GI50 up to about 1.1 µM and inactive = higher. Bounds are passed on as bounds.

A word on the GI50: it is the concentration at which growth is held to half of that of the control.

As for `O=C(NCCNCCO)N/N=C/c1ccc(Cl)cc1`, the GI50 in experiment [1] is > 100 µM (inactive); in [2] it was > 100 µM (inactive); in [3], > 100 µM (inactive); in [4], > 100 µM (inactive); in [5] it was 36.1 µM (inactive); in experiment [6], > 100 µM (inactive). Further, the GI50 in experiment [7], in [8], in experiment [9], in [10], in experiment [11] and in [12] was > 100 µM (inactive) each time. The GI50 in experiment [13], in [14], in experiment [15], in experiment [16] and in [17] was > 100 µM (inactive) each time.
As for `Cc1ccc(N2C=Nn3c(nc4sc5c(c4c3=O)CCCC5)C2)cc1`, the GI50 in experiment [1] was 65.5 µM (inactive); in [2], 41.2 µM (inactive); in experiment [3], 62.4 µM (inactive); in experiment [4] it was > 100 µM (inactive); in [18], 37.8 µM (inactive); in [5], 52 µM (inactive). The GI50 in experiment [6] is 51.8 µM (inactive); in experiment [7], 88.3 µM (inactive); in experiment [8], 46.7 µM (inactive); in [9] it was > 100 µM (inactive); in experiment [10], 35.7 µM (inactive); in experiment [11], 28.1 µM (inactive). Further, the GI50 is > 100 µM (inactive) in experiment [12]; 47.4 µM (inactive) in experiment [14]; 49.4 µM (inactive) in experiment [15]; 47.1 µM (inactive) in [16]; 32.1 µM (inactive) in [19]; 47.4 µM (inactive) in experiment [20]. Also, the GI50 in experiment [17] is 49.4 µM (inactive).
On to `C=C1CCC[C@@H](C)C(O)[C@@H]2OC(=O)C(=C)[C@@H]2C[C@@H](OC(C)=O)[C@@]2(C)CC[C@@H]1O2` (stereo partly specified), for which the GI50 in [1] was 6.97 µM (inactive); in [2], 6.97 µM (inactive); in experiment [3] it was 7.76 µM (inactive); in [4] it was 8.09 µM (inactive); in experiment [18] it was 13.7 µM (inactive); in experiment [5], 0.91 µM (active). Also, the GI50 in experiment [6] was 8.3 µM (inactive); in experiment [7] it was 8.15 µM (inactive); in experiment [8], 9.57 µM (inactive); in experiment [9], 4.53 µM (inactive); in [10], 8.95 µM (inactive); in [11] it was 8.67 µM (inactive). In addition, the GI50 in experiment [12] is 7.52 µM (inactive); in experiment [13], 1.75 µM (inactive); in experiment [14] it was 15.8 µM (inactive); in experiment [16], 8.47 µM (inactive); in experiment [19], 8.85 µM (inactive); in experiment [17], 5.37 µM (inactive).
On to `S=c1[nH]nc(Cn2c3ccc(Br)cc3c3nc4ccccc4nc32)o1`, for which the GI50 was 4.55 µM (inactive) in experiment [1]; 28.3 µM (inactive) in [2]; 47.3 µM (inactive) in [3]; 16.3 µM (inactive) in [4]; 86.1 µM (inactive) in experiment [5]; 18.7 µM (inactive) in [6]. The GI50 is 31.9 µM (inactive) in experiment [7]; 0.944 µM (active) in experiment [8]; 27.5 µM (inactive) in [9]; 34.3 µM (inactive) in [10]; > 63.2 µM (inactive) in experiment [12]; 0.568 µM (active) in [13]. The GI50 in experiment [14] is 22.8 µM (inactive); in [15], 42.3 µM (inactive); in [16], 35.6 µM (inactive); in [19] it was 4.29 µM (inactive); in experiment [17], 29.9 µM (inactive).
Turning to `CCOP(=O)(/C=C\n1cc(C)c(=O)[nH]c1=O)OCC`, the GI50 in [1], in experiment [2], in experiment [3], in experiment [18], in [5] and in experiment [6] was > 100 µM (inactive) throughout. In addition, the GI50 in experiment [7], in experiment [8], in experiment [9], in [10], in experiment [12] and in experiment [14] was > 100 µM (inactive) throughout. Besides, the GI50 in [16], in [19], in experiment [20] and in experiment [17] was > 100 µM (inactive) in each case.
As for `c1ccc2c(c1)SCCCSCCSCCCS2`, the GI50 was > 100 µM (inactive) in experiment [1]; > 100 µM (inactive) in experiment [2]; > 100 µM (inactive) in [3]; 60.5 µM (inactive) in [4]; 93.5 µM (inactive) in experiment [18]; > 100 µM (inactive) in [5]. Also, the GI50 in experiment [6], in experiment [7], in experiment [8], in [9], in experiment [10] and in [12] was > 100 µM (inactive) throughout. In addition, the GI50 in experiment [13], in experiment [14], in [16], in experiment [20] and in experiment [17] was > 100 µM (inactive) in each case.
Consider `Clc1n[nH]c2ccccc12`, for which the GI50 in [1], in [2], in [3], in [4], in experiment [18] and in experiment [5] was > 100 µM (inactive) throughout. Also, the GI50 in [6], in [7], in [8], in [9], in experiment [10] and in experiment [11] was > 100 µM (inactive) throughout. In addition, the GI50 in experiment [12] was 14.7 µM (inactive); in experiment [14], > 100 µM (inactive); in experiment [15] it was > 100 µM (inactive); in experiment [16] it was > 100 µM (inactive); in [19] it was > 100 µM (inactive); in [17], > 100 µM (inactive).
Turning to `COCP1(=S)OC(C)CCN1C(C)C` (stereo unspecified), the GI50 in experiment [1], in [2], in [3], in experiment [4], in experiment [18] and in [6] was > 100 µM (inactive) each time. Besides, the GI50 in [7], in [8], in experiment [9], in experiment [10], in experiment [12] and in experiment [13] was > 100 µM (inactive) throughout. In addition, the GI50 in experiment [14], in experiment [15], in experiment [16], in experiment [19], in [20] and in experiment [17] was > 100 µM (inactive) throughout.
Turning to `Nc1ncnc2c1ncn2C(=O)NC12CC3CC(CC(C3)C1)C2`, the GI50 in experiment [1] was > 100 µM (inactive); in experiment [2] it was > 100 µM (inactive); in experiment [3] it was > 100 µM (inactive); in [4], > 100 µM (inactive); in experiment [18], > 100 µM (inactive); in experiment [5], 84.7 µM (inactive). The GI50 in [6], in experiment [8], in experiment [9], in experiment [10], in experiment [11] and in experiment [12] was > 100 µM (inactive) in each case. Also, the GI50 in experiment [14], in experiment [15], in [16], in [19], in experiment [20] and in experiment [17] was > 100 µM (inactive) in each case.
Take `CN(CCNC(=O)c1cn(C)c2c1ccc1ccccc12)CCNC(=O)c1cn(C)c2c1ccc1ccccc12`: the GI50 in experiment [1] was 1.95 µM (inactive); in experiment [2], 1.99 µM (inactive); in [3], 1.79 µM (inactive); in experiment [4], 1.91 µM (inactive); in experiment [18], 5.62 µM (inactive); in [5], 1.79 µM (inactive). Also, the GI50 is 2.7 µM (inactive) in experiment [6]; 1.62 µM (inactive) in experiment [7]; 2.04 µM (inactive) in experiment [8]; 2.7 µM (inactive) in experiment [9]; 2.04 µM (inactive) in [10]; 2.18 µM (inactive) in experiment [11]. For the same compound, the GI50 was 1.26 µM (inactive) in experiment [12]; 3.59 µM (inactive) in experiment [14]; 2.14 µM (inactive) in experiment [15]; 6.05 µM (inactive) in [16]; 2.59 µM (inactive) in experiment [19]; 2.52 µM (inactive) in [20]. Further, the GI50 in [17] is 2.26 µM (inactive).
On to `C=C1c2ccccc2Oc2nc3nc(N)c(C#N)c(N)c3c(N)c21`, for which the GI50 in experiment [1] was 29.6 µM (inactive); in experiment [2] it was 22.9 µM (inactive); in experiment [3] it was 18.6 µM (inactive); in experiment [4] it was 25.2 µM (inactive); in [18], 42.6 µM (inactive); in experiment [5], 24.5 µM (inactive). The GI50 in experiment [6] was 30.5 µM (inactive); in [7] it was 2.39 µM (inactive); in experiment [8], 30.2 µM (inactive); in [9], 35.7 µM (inactive); in experiment [10], 27 µM (inactive); in experiment [11], 21.9 µM (inactive). In addition, the GI50 was 39.9 µM (inactive) in [12]; 30.1 µM (inactive) in [14]; 22.8 µM (inactive) in [15]; 23.1 µM (inactive) in [16]; 24.4 µM (inactive) in experiment [19]; 24.5 µM (inactive) in experiment [20]. In addition, the GI50 in experiment [17] was 16.6 µM (inactive).
